Results from US20100197668A1, “1,2,3,4-TETRAHYDROPYRROLO[1,2-A]PYRAZINE-6-CARBOXAMIDE AND 2,3,4,5-TETRAHYDROPYRROLO[1,2-a][1,4]-DIAZEPINE-7-CARBOXAMIDE DERIVATIVES, PREPARATION AND THERAPEUTIC USE THEREOF” (SANOFI-AVENTIS, priority 2007, published 2010).
Counter-ions that a name gives are not always drawn.

Experiments:
[1] = biological target: T1, purified recombinant form of human BACE1 aspartyl protease (Homo sapiens, UniProt P56817); assay: in vitro inhibition of β-secretase (BACE1) activity, cleavage of fluorogenic peptide substrate FS1 (FRET); assay type: biochemical; conditions: recombinant human BACE1 10 nM, substrate FS1 5 μM, sodium acetate buffer pH 4.5, 37° C., 45 minutes; read-out: IC50 (concentration of product giving 50% inhibition of the enzyme activity)
T1 construct: hexahistidine (C); made in house; host or cells: Drosophila cells
Text: The compounds according to the invention have been the subject of pharmacological tests enabling their inhibitory effect with respect to β-secretase activity to be determined.
The tests consisted in measuring the in vitro inhibition of the β-secretase activity by the compounds of the invention.
The β-secretase activity measured corresponds to that of a purified recombinant form of human BACE1 aspartyl protease (the latter comprising a hexahistidine tag at the C-terminal position) produced by expression in Drosophila cells. The purified enzyme is conditioned in TRIS buffer (18 mM) at pH 7.5 containing NaCl (0.45M), MnCl2 (0.9 mM), CaCl2 (0.9 mM), α-D-methylmannoside and 10% glycerol, and stored at −80° C. until use.
The BACE1 activity is measured from the cleavage of a fluorogenic peptide substrate, known as FS1, described originally by Ermolieff et Coll. (2000, Biochemistry, 39, 12450-12456), and based on the principle of fluorescence resonance energy transfer (FRET); the cleavage of the FS1 peptide is measured from the increase of the fluorescent signal emitted by the EDANS (or 5-[(2-aminoethyl)amino]-naphthalene-2-sulfonic acid) group.
The test is carried out in a 96-well microplate in order to determine the inhibition of the enzyme activity by the products of the invention. The substrate FS1 is solubilized to a concentration of 1 mM in 100% dimethylsulfoxide (DMSO) and stored at −20° C. until use. The dilutions of the products to be tested are prepared in DMSO starting from a 10 mM stock solution. The products of the invention, at final concentrations of 0.003 to 10 μM are incubated at 37° C. with the substrate FS1 (final concentration of 5 μM) and the purified enzyme (final concentration of 10 nM) in the sodium acetate buffer (0.1 M), pH 4.5 containing 0.02% of CHAPS detergent and […] for 45 minutes. […] When the incubation is finished, the fluorescence is measured in a spectrofluorimeter, at the excitation wavelength of 355 nm and emission wavelength of 509 nm. For each product concentration tested, the fluorescent signal is compared to the maximum signal obtained when the substrate FS1 is only incubated with the enzyme.
The inhibitory activity of the products of the invention is then evaluated by the measurement of the IC50 (concentration of product giving 50% inhibition of the enzyme activity) using a non-linear regression analysis (computer application software XLfit, IDBS™).

T1 sequence (P56817 46-501): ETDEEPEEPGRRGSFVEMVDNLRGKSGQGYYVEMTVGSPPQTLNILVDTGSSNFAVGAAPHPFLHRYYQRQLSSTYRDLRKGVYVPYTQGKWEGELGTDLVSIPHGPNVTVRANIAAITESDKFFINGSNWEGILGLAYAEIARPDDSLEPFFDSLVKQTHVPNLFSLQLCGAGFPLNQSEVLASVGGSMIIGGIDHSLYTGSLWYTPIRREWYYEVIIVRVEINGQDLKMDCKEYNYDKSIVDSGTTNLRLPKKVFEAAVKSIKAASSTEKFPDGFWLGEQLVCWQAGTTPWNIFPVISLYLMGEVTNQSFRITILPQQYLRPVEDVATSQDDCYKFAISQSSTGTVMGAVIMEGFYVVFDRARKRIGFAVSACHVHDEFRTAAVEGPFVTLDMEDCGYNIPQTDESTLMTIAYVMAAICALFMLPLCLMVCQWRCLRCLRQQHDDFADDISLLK

SMILES: CC(C)(C)OC(=O)N1CCn2c(C(=O)N[C@@H](Cc3ccccc3)[C@H](O)CNC3(c4cccc(C(F)(F)F)c4)CC3)cc(C(=O)O)c2C1 [Compound 2, 6-{[(1S,2R)-1-Benzyl-2-hydroxy-3-({1-[3-(trifluoromethyl)phenyl]cyclopropyl}amino)propyl]carbamoyl}-2-(tert-butoxycarbonyl)-1,2,3,4-tetrahydropyrrolo[1,2-a]pyrazine-8-carboxylic acid]
- melting point: 134.5 °C

SMILES: CCCC(CCC)N1CCn2c(C(=O)N[C@@H](Cc3ccccc3)[C@H](O)CNCc3cccc(C(F)(F)F)c3)ccc2C1=O.Cl [Compound 9, N-[(1S,2R)-1-Benzyl-2-hydroxy-3-{[3-(trifluoromethyl)benzyl]amino}propyl]-1-oxo-2-(1-propylbutyl)-1,2,3,4-tetrahydropyrrolo[1,2-a]pyrazine-6-carboxamide hydrochloride (1:1)]
- IC50 [1]: 370 nM
- melting point: 168 °C

SMILES: CCCC(CCC)N1CCn2c(C(=O)N[C@@H](Cc3cc(F)cc(F)c3)[C@H](O)CNC3(c4cccc(C(F)(F)F)c4)CC3)ccc2C1=O.Cl [Compound 7, N-[(1S,2R)-1-(3,5-Difluorobenzyl)-2-hydroxy-3-({1-[3-(trifluoromethyl)-phenyl]cyclopropyl}amino)propyl]-1-oxo-2-(1-propylbutyl)-1,2,3,4-tetrahydropyrrolo[1,2-a]pyrazine-6-carboxamide hydrochloride (1:1)]
- IC50 [1]: 480 nM
- melting point: 183 °C

SMILES: CCN(CC)C(=O)c1cc(C(=O)N[C@@H](Cc2ccccc2)[C@H](O)CNC2(c3cccc(C(F)(F)F)c3)CC2)n2c1CNCC2 (as salt: HCl) [Compound 5, 6-{(1S,2R)-1-benzyl-2-hydroxy-3-[1-(3-trifluoromethylphenyl)cyclopropylamino]propyl}-N-8,N-8-diethyl-1,2,3,4-tetrahydropyrrolo[1,2-a]pyrazine-6,8-dicarboxamide]
- melting point: 143 °C

SMILES: COC(=O)c1cc(C(=O)N[C@@H](Cc2ccccc2)[C@H](O)CNC2(c3cccc(C(F)(F)F)c3)CC2)n2c1CN(C(=O)OC(C)(C)C)CC2 [Compound 1, 2-tert-Butyl 8-methyl 6-{[(1S,2R)-1-benzyl-2-hydroxy-3-({1-[3-(trifluoromethyl)phenyl]cyclopropyl}amino)propyl]carbamoyl}-3,4-dihydropyrrolo[1,2-a]pyrazine-2,8(1H)-dicarboxylate]
- melting point: 136 °C

SMILES: CCCC(CCC)N1CCn2c(C(=O)N[C@@H](Cc3ccccc3)[C@H](O)CNC3(c4cccc(C(F)(F)F)c4)CC3)ccc2C1=O.Cl
- melting point: 176 °C

SMILES: CCN(CC)C(=O)c1cc(C(=O)N[C@@H](Cc2ccccc2)[C@H](O)CNC2(c3cccc(C(F)(F)F)c3)CC2)n2c1CNCC2 [Compound 5, 6-{(1S,2R)-1-benzyl-2-hydroxy-3-[1-(3-trifluoromethylphenyl)cyclopropylamino]propyl}-N-8,N-8-diethyl-1,2,3,4-tetrahydropyrrolo[1,2-a]pyrazine-6,8-dicarboxamide]
- IC50 [1]: 310 nM

SMILES: CCCC(CCC)N1CCCn2c(C(=O)N[C@@H](Cc3ccccc3)[C@H](O)CNCc3cccc(C(F)(F)F)c3)ccc2C1=O [Compound 11, N-[(1S,2R)-1-Benzyl-2-hydroxy-3-{[3-(trifluoromethyl)benzyl]amino}propyl]-1-oxo-2-(1-propylbutyl)-2,3,4,5-tetrahydro-1H-pyrrolo[1,2-a][1,4]diazepine-7-carboxamide hydrochloride (1:1)]
- IC50 [1]: 1400 nM
